Earlier results on two molecules are cited in US20240108697A1, “ANTIMICROBIAL COMPOSITIONS” (Matoke Holdings Limited, priority 2020, published 2024).

For series [1] the following is noted: at 20° C. and 1 atm.
Series [2] deals with Human Fibroblast Cell Migration. As to conditions: in the presence of 30 mM glucose.

`O=C(CO)[C@@H](O)[C@H](O)[C@H](O)CO` [Fructose]: the solubility result in series [1] is “about 375 g/100 g water”.

Turning to `O=C[C@H](O)[C@@H](O)[C@H](O)[C@H](O)CO` [Glucose], the “mobilisation of fibroblasts in a cell culture system” value in series [2] is listed as “poor mobilisations of fibroblasts”. The solubility in series [1] was 90 g/100 g water.
